Experiment: xn = mol fraction of the nth substance listed
Details: 101 kPa

| Compound | electrical conductivity (283.15 K, x1 = 0.0255) | electrical conductivity (288.15 K, x1 = 0.0255) | electrical conductivity (298.15 K, x1 = 0.0052) | electrical conductivity (298.15 K, x1 = 0.0155) | electrical conductivity (298.15 K, x1 = 0.0205) | electrical conductivity (298.15 K, x1 = 0.0255) | electrical conductivity (298.15 K, x1 = 0.05) | electrical conductivity (303.15 K, x1 = 0.0255) | electrical conductivity (308.15 K, x1 = 0.0255) | electrical conductivity (313.15 K, x1 = 0.0255) | electrical conductivity (318.15 K, x1 = 0.0255) | electrical conductivity (323.15 K, x1 = 0.0255) | electrical conductivity (333.15 K, x1 = 0.0255) | electrical conductivity (278.15 K, x1 = 0.0255) | electrical conductivity (293.15 K, x1 = 0.0255) | electrical conductivity (298.15 K, x1 = 0.0104) | electrical conductivity (328.15 K, x1 = 0.0255) | also measured |
| --- | --- | --- | --- | --- | --- | --- | --- | --- | --- | --- | --- | --- | --- | --- | --- | --- | --- | --- |
| Cc1n(S(=O)(=O)O)cc[n+]1S(=O)(=O)O.O=C([O-])C(F)(F)F + CO | 4 S/m | 3.64 S/m | 1.38 S/m | 2 S/m | 2.41 S/m | 3.29 S/m | 4.44 S/m | 3.01 S/m | 2.98 S/m | 2.86 S/m | 2.84 S/m | 2.73 S/m | 2.32 S/m | – | – | – | – | electrical conductivity (298.15 K, x1 = 0.08): 4.49 S/m; electrical conductivity (298.15 K, x1 = 0.1): 4.52 S/m; electrical conductivity (298.15 K, x1 = 0.12): 4.03 S/m; electrical conductivity (298.15 K, x1 = 0.15): 3.28 S/m; electrical conductivity (298.15 K, x1 = 0.18): 2.42 S/m; electrical conductivity (298.15 K, x1 = 0.2): 1.71 S/m |
| O=C([O-])C(F)(F)F.O=S(=O)(O)n1cc[n+](S(=O)(=O)O)c1 + CO | 4.9 S/m | – | – | 2.85 S/m | 3.56 S/m | 4.13 S/m | 5.45 S/m | 4.05 S/m | – | – | 3.52 S/m | 3.46 S/m | – | 5.19 S/m | 4.26 S/m | 2.23 S/m | 3.37 S/m | – |
| CCc1n(S(=O)(=O)O)cc[n+]1S(=O)(=O)O.O=C([O-])C(F)(F)F + CO | – | 3.44 S/m | – | 1.93 S/m | 2.27 S/m | – | – | 3.03 S/m | 2.95 S/m | – | 2.51 S/m | 2.36 S/m | 1.96 S/m | 3.75 S/m | – | 1.64 S/m | 2.19 S/m | – |
| CCCCc1n(S(=O)(=O)O)cc[n+]1S(=O)(=O)O.O=C([O-])C(F)(F)F + CO | 3.01 S/m | 2.89 S/m | 1.41 S/m | 1.76 S/m | – | 2.65 S/m | – | 2.45 S/m | – | 2.08 S/m | 1.91 S/m | 1.73 S/m | 1.57 S/m | 3.18 S/m | 2.72 S/m | – | 1.69 S/m | – |

From a compilation of properties of binary mixtures (doi:10.1016/j.molliq.2019.111099)
